Measurements from US8951752B2, “N-demethyase genes and uses thereof” (priority 2011, dated 2015).

How the values were obtained:
[1] = biological target: T1, N-demethylase (Ndm: NdmA and NdmB subunits) (Pseudomonas putida, UniProt H9N289+H9N290); assay: Methylxanthine N-demethylase activity assay with purified Ndm plus partially purified Ccr; type: biochemical, Pseudomonas putida CBB5; settings: for Relative N-demethylase activity: relative to paraxanthine
T1 construct: lane 3, natural Ndm purified from P. putida CBB5; made in house; host or cells: purified from the natural strain Pseudomonas putida CBB5 (DEAE, Phenyl and Q Sepharose); not recombinant
T1 sequence (H9N289 1-351): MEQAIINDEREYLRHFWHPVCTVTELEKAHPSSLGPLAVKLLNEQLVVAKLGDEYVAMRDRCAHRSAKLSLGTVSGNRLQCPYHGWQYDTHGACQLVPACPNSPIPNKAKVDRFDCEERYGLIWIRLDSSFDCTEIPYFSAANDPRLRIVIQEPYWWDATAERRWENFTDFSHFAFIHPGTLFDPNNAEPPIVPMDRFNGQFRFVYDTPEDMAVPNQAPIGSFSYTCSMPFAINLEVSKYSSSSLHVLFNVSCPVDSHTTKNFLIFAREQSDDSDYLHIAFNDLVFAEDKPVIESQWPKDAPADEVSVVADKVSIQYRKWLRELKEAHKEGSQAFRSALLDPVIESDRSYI
T1 sequence (H9N290 1-355): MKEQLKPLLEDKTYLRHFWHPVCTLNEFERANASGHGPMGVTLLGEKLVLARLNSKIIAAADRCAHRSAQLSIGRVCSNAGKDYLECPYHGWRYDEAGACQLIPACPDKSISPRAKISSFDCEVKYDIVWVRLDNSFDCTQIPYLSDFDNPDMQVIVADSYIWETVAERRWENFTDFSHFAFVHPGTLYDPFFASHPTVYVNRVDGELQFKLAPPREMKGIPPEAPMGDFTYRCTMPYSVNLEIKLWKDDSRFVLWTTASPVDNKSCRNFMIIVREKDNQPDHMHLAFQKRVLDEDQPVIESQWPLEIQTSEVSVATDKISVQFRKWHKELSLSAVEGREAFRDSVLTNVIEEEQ
Method: Methylxanthine N-demethylase activity assay contained, in 1-mL total volume, 0.5 mM methylxanthine, 1 mM NADH, 50 μM Fe(NH4)2(SO4)2, and an appropriate amount of Ndm (0.08-7.5 mg protein, depending on purity of the protein) in 50 mM KPi buffer. Approximately 4 U of partially purified Ccr was added to reaction mixture when assaying Ndm in Phenyl Sepharose and Q Sepharose eluant-fractions (Ccr was not added to the enzyme reaction mixture when assaying Ndm activity in DEAE Sepharose eluant-fractions because Ccr co-eluted with Ndm). The reaction mixture was incubated at 30° C. with 300 rpm shaking on an incubating microplate shaker (VWR). Periodically, a small aliquot was sampled from the reaction mixture and mixed with equal volume of acetonitrile for quantifying concentrations of methylxanthines and N-demethylated products by HPLC. One unit of N-demethylase activity was defined as the consumption of one μmole methylxanthine per minute. When Ndm was coupled with the reductase and ferredoxin components of naphthalene dioxygenase of Pseudomonas sp. strain 9816 (Haigler & Gibson, 1990a; Haigler & Gibson, 1990b), 30 and 100 μg of the respective proteins were used. Spinach ferredoxin reductase and ferredoxin were also substituted for Ccr as described by Subramanian et al. (1979).
Determination of Kinetic Parameters. Apparent kinetic parameters of Ndm were determined by measuring the initial rate of disappearance (vo) of paraxanthine or 7-methylxanthine in 50 mM KPi buffer (pH 7.5) at 30° C. The paraxanthine and 7-methylxanthine concentrations ([S]) used in these experiments were from 20 to 500 μM. Substrates were incubated with Ndm and Ccr under standard conditions for 15 minutes. At 1, 5, 10, and 15 minutes, samples were removed from the reaction mixtures to quantitate substrate concentrations by HPLC. Plots of substrate concentrations against time were used to determine the initial rates of disappearance of substrates which were linear over 15 minutes. The apparent kinetic parameters were determined from Michaelis-Menten plots of Vo against [S] fitted with the equation
Determination of Oxygen Requirement. Oxygen consumption by Ndm during N-demethylation of paraxanthine was determined in a closed reaction vessel equipped with a Clarke-type oxygen electrode (Digitial Modell 0, Rank Brothers Ltd., Cambridge, England). The electrode was calibrated by using glucose oxidase (Sigma) and glucose for consumption of oxygen. Ndm activity assay was performed at 30° C. in a total volume of 1 ml of air-saturated 50 mM KPi buffer (pH 7.5) with 100 μM paraxanthine, 200 μM NADH, 50 μM Fe(NH4)2(SO4)2, 0.2 mg purified Ndm, and 4 U partially purified Ccr. The reaction was initiated by adding Ndm and partially purified Ccr after equilibration of all other reaction components for 3.3 minutes. After 13 minutes, a 100-μL aliquot was withdrawn from the reaction, immediately mixed with equal volume of acetonitrile to stop the enzyme reaction, and analyzed for N-demethylation product by HPLC. Background oxygen consumption, possibly due to NADH oxidase enzyme activity in the partially purified Ccr, was quantitated in control reactions containing all reaction components except paraxanthine.
Formaldehyde Determination. […] Twenty μL Nash reagent was added to 50 μl Ndm reaction sample plus 50 μl acetonitrile. This mixture was incubated at 51° C. for 12 minutes.

[2] = test system: cell extracts prepared from P. putida CBB5; assay: NADH-dependent N-demethylase activity of CBB5 cell extracts; type: biochemical, Pseudomonas putida CBB5; settings: 0.5 mM substrate, 7.2 mg mL^−1 protein

With `Cn1cnc2c1c(=O)[nH]c(=O)n2C` [Theobromine, 3,7-dimethylxanthine] the Products identified ([1]; same products at 500 and 200 μM substrate) was 3- & 7-methylxanthine, and xanthine, the “Relative N-demethylase activity” value ([1]; substrate conc. 200 μM) was 80.2 ± 7.8 and the “Relative N-demethylase activity” value ([1]; substrate conc. 500 μM) was 59.8 ± 1.9. For the same molecule, the “degradation rate compared with paraxanthine” value [2] was “significantly slower”.
